Test results: article PMC3545969, “Mutagenicity and antimutagenicity of (−)-hinokinin a trypanosomicidal compound measured by Salmonella microsome and comet assays” (BMC Complementary and Alternative Medicine, 2012)
Read-outs that look alike come from different tables or passages of the source. Marks after values point to notes of the source that are not given here.

Key:
[1] = tested on: Salmonella typhimurium TA97a; settings: TA 97a, + S9, positive control 2-anthramine 1.25 μg/plate
[2] = tested on: Salmonella typhimurium TA97a; settings: TA 97a, + S9, mutagen alone (Ctrol +), 2-AA 1.25 μg/plate
[3] = tested on: Salmonella typhimurium TA98; settings: TA 98, + S9, positive control 2-anthramine 1.25 μg/plate
[4] = tested on: Salmonella typhimurium TA100
V79 cells = test: Comet assay, genotoxicity in V79 cells; format: cell-based, Chinese hamster; parameters: Class 0 / Class 1 / Class 2 / Class 3: unit not given here; settings: for Class 0 / Class 1 / Class 2 / Class 3 / Score: 3 h
Procedure: Chinese hamster lung fibroblasts (V79) were kindly supplied by Professor Cólus (Universidade Estadual de Londrina (UEL), Paraná, Brazil). Cells were maintained as monolayers in plastic culture flasks (25 cm^2) in HAM-F10 (Sigma-Aldrich) plus DMEM (Sigma-Aldrich, 1:1) culture medium supplemented with 10%; fetal bovine serum (Nutricell), antibiotics (0.01 mg mL^−1 streptomycin and 0.005 mg mL^−1 penicillin; Sigma-Aldrich) and 2.38 mg mL^−1 Hepes (Sigma-Aldrich), at 37°C in a BOD-type chamber. Under these conditions, the average cell cycle time was 12 h.
HK was first dissolved in a mixture of methanol (100 μL) and distilled water (900 μL). The final concentration of methanol in the culture was 0.1%;. The choice of concentrations was based on the results of previous experiments with HK [12]. In the experiments, 3 × 10^5 cells (V79) were seeded into tissue-culture flasks, incubated for two cycles (24 h) in complete HAM-F10/DMEM medium, washed with phosphate buffer saline (PBS), and then subjected to one of the following treatments, in serum-free medium, for 3 h. To assess genotoxicity, the cells were treated with each concentration of HK alone, while for antigenotoxicity, they were treated with the mutagen DXR (0.3 μM) in combination with each HK concentration. Positive (DXR) and negative controls were also included in the test. At the end of the treatment, the cells were washed with ice-cold PBS and trypsinized with 200 μL trypsin. After 3 min, the cells were gently resuspended in complete medium and 20 μL of the cell suspension was immediately used for the test.
The procedures described by Singh et al. were adopted, with minor modifications, as described in detail by Speit and Hartmann and reviewed by Burlinson et al.. Briefly, a microscope slide was covered with a base layer of 1.5%; normal-melting agarose (Invitrogen) and 20 μL of the test cells suspended in 120 μL 0.5%; low-melting agarose (Invitrogen) at 37°C was then spread over the base layer. A coverslip was added and the agarose allowed to solidify at 4°C for 15 min. Next, the coverslip was gently removed and the slides were immersed in freshly prepared lysing solution consisting of 89 mL stock solution (2.5 M NaCl, 100 mM EDTA, 10 mM Tris, pH 10.0, and 1%; sodium lauryl sarcosine), 10 mL DMSO and 1 mL Triton X-100, pH 10.0, at 4°C, for at least 20 h, protected from light. At the end of this period, the slides were transferred to an electrophoresis chamber containing a high pH (>13.0) buffer (300 mM NaOH, 1 mM EDTA) and incubated at 4°C for 20 min to allow the DNA to unwind. A current of 25 V (1.0 V cm^−1, 300 mA) was applied for 20 min. The slides were then submerged in a neutralization buffer (0.4 M Tris - HCl, pH 7.5) for 15 min, dried at room temperature and fixed in 100%; ethanol for 10 min.
The slides were stained with 100 μL ethidium bromide (20 μg ml^−1) and covered with a coverslip. All the slides in the experiment were coded before analysis. The stained nucleoids were immediately evaluated at 1000x magnification under a Nikon fluorescence microscope fitted with a 515–560 nm excitation filter and a 590 nm barrier filter.
For each treatment, the extent and distribution of DNA damage indicated by the comet assay were evaluated by examining 100 randomly selected and non-overlapping cells on the slides (i.e. 300 nucleoids per treatment). For each slide, the cells were visually scored and allocated to one of four classes (0, 1, 2 and 3), according to tail size, as follows: class 0, undamaged, no tail; class 1, a short tail whose length was smaller than the diameter of the comet head (nucleus); class 2, tail length between 1 and 2 times the diameter of the head; and class 3, maximally damaged: a long tail measuring more than twice the diameter of the head. The few comets containing no head and those with almost all DNA in the tail, or with a very wide tail, were excluded from the analysis since they may arise from dead cells. […]

[5] = tested on: Salmonella typhimurium TA100; remark: listed apart in the source
[6] = DXR 0.3 μM alone (positive control)

Compound: Nc1ccc2cc3ccccc3cc2c1 [2-AA, 2-aminoanthracene, reference compound]
- Number of revertants(M ± SD)/ plate [1]: 1789 ± 89^e revertants/plate
- Number of revertants(M ± SD)/ plate [2]: 1083 + 67 revertants/plate
- Number of revertants(M ± SD)/ plate [3]: 1567 ± 115^e revertants/plate
- Number of revertants(M ± SD)/ plate ([4]; TA 100, + S9, positive control 2-anthramine 1.25 μg/plate): 1456 ± 78^e revertants/plate

Compound: COc1cccc2c1C(=O)c1c(O)c3c(c(O)c1C2=O)C[C@@](O)(C(=O)CO)C[C@@H]3O[C@H]1C[C@H](N)[C@H](O)[C@H](C)O1 [DXR, doxorubicin, reference compound]
- Class 0 (V79 cells; DXR 0.3 μM + MeOH 0.1%): 46.3 ± 6.8
- Class 1 (V79 cells; DXR 0.3 μM + MeOH 0.1%): 30.0 ± 6.0
- Class 2 (V79 cells; DXR 0.3 μM + MeOH 0.1%): 16.3 ± 5.6
- Class 3 (V79 cells; DXR 0.3 μM + MeOH 0.1%): 6.6 ± 3.0
- Score (V79 cells; DXR 0.3 μM + MeOH 0.1%): 83.3 ± 14.5^a
- Class 0 (V79 cells; [6]): 41.0 ± 12.0
- Class 1 (V79 cells; [6]): 36.0 ± 12.7
- Class 2 (V79 cells; [6]): 18.0 ± 2.0
- Class 3 (V79 cells; [6]): 4.0 ± 2.5
- Score (V79 cells; [6]): 86.0 ± 11.5^a
- rate of DNA damage relative to the negative control (V79 cells; DXR 0.3 μM, V79 cells): significant increase in the rate of DNA damage

Compound: [N-]=[N+]=[N-].[Na+] [SA, sodium azide, reference compound]
- Number of revertants(M ± SD)/ plate [5]: 1219 + 46 revertants/plate
- Number of revertants(M ± SD)/ plate [4]: 1582 ± 98^c revertants/plate

Compound: aflatoxin B1 [AFB1, reference compound]
- Number of revertants(M ± SD)/ plate [5]: 1607 + 79 revertants/plate
